Common to all, as to assay type: in vivo
Test [1] relates to Morningglory. Briefly: Post-emergence herbicide test. The settings on record: for inhibition at 11210 g/ha: 11.21 kg/ha. From the text: (§1) Topsoil is placed in aluminum pans having holes in the bottom and compacted to a depth of 0.95 to 1.27 cm from the top of the pan. A predetermined number of seeds of each of several dicotyledonous and monocotyledonous annual plant species and/or vegetative propagules for the perennial plant species are placed on the soil and pressed into the soil surface. The seeds and/or vegetative propagules are covered with soil and leveled. The pans are then placed on a bench in the greenhouse and watered from below as needed. After the plants reach the desired age (two to three weeks), each pan, is removed individually to a spraying chamber and sprayed by means of an atomizer, operating at a spray pressure of 170.3 kPa (10 psig) at the application rates noted. In the spray solution is an amount of an emulsifying agent mixture to give a spray solution or suspension which contains about 0.4% by volume of the emulsifier. The spray solution or suspension contains a sufficient amount of the candidate chemical in order to give application rates of the active ingredient corresponding to those shown in Tables 8 and 8A, while applying a total amount of solution or suspension equivalent to 1870 L/Ha (200 gallons/acre). The pans were returned to the greenhouse and watered as before and the injury to the plants as compared to the control is observed at approximately 10-14 days (usually 11 days) and in some instances observed again at 24-28 days (usually 25 days) after spraying. The post-emergent herbicidal activity shown in these tables is the percent inhibition of each plant species.

Test [2] has as its system Yellow nutsedge. Briefly: Post-emergence herbicide test. The conditions noted are these: Cyperus, read-out: % plant inhibition (Yens); for inhibition at 11210 g/ha: 11.21 kg/ha.
Excerpt: as §1

Test [3] has as its system Barnyardgrass. In words: Post-emergence herbicide test. The settings on record: Echinochloa crus-galli, 11.21 kg/ha, read-out: % plant inhibition (Bygr).
Excerpt: as §1

Test [4] relates to Cocklebur. In words: Post-emergence herbicide test. The conditions noted are these: for inhibition at 11210 g/ha: Xanthium strumarium, 11.21 kg/ha, read-out: % plant inhibition (Cobu).
Excerpt: as §1

Test [5] has as its system Velvetleaf. Briefly: Post-emergence herbicide test. The settings on record: for inhibition at 11210 g/ha: Abutilon theophrasti, 11.21 kg/ha, read-out: % plant inhibition (Vele).
Excerpt: as §1

In test [6] the test system is Indian Mustard. Briefly: Post-emergence herbicide test. The settings on record: Brassica juncea, 11.21 kg/ha, read-out: % plant inhibition (Inmu).
Excerpt: as §1

Test [7] relates to Downy Brome. In words: Post-emergence herbicide test. The settings on record: Bromus tectorum, 11.21 kg/ha, read-out: % plant inhibition (Dobr).
Excerpt: as §1

The subject of test [8] is Annual bluegrass. In words: Post-emergence herbicide test. The settings on record: 11.21 kg/ha, read-out: % plant inhibition (Anbg).
Excerpt: as §1

The subject of test [9] is Seedling johnsongrass. In words: Post-emergence herbicide test. The settings on record: Sorghum halepense, 11.21 kg/ha, read-out: % plant inhibition (Sejg).
Excerpt: as §1

Test [10] concerns Morningglory. In words: Pre-emergence herbicide test. The settings on record: Ipomoea, read-out: % plant inhibition (Mogl); for inhibition at 11210 g/ha: 11.21 kg/ha. How it is done:
(§2) The tests for pre-emergence herbicide activity are conducted as follows:
(§3) Topsoil is placed in an aluminum pan and compacted to a depth of 0.95 to 1.27 cm from the top of the pan. On the top of the soil is placed a predetermined number of seeds of each of several monocotyledonous and dicotyledonous annual plant species and/or vegetative propagules of various perennial plant species. A known amount of the active ingredient dissolved or suspended in an organic solvent, e.g., acetone, or water as carrier is then applied directly to the seed bed, which is then covered with a layer of untreated topsoil to level fill the pan. After treatment, the pans are moved to a greenhouse bench where they are watered from below as needed to give adequate moisture for germination and growth.
(§4) Approximately 10-14 days (usually 11 days) after seeding and treating, the pans are observed and the results (% inhibition) are recorded.
(§5) Tables 7 and 7A below summarize the results of the pre-emergence herbicidal activity tests of compounds of this invention in weeds. The herbicidal rating shown in these tables is the percent inhibition of each plant species. The plant species usually regarded as weeds which are utilized in one set of tests, the data for which are shown in the tables, are identified by letter headings above the columns in accordance with the following legend: […]

The test system of test [11] is Yellow nutsedge. In words: Pre-emergence herbicide test. The settings on record: Cyperus, read-out: % plant inhibition (Yens); for inhibition at 11210 g/ha: 11.21 kg/ha. How it is done:
as §2, §3, §4, §5

Test [12] concerns Barnyardgrass. Briefly: Pre-emergence herbicide test. The settings on record: Echinochloa crus-galli, read-out: % plant inhibition (Bygr); for inhibition at 11210 g/ha: 11.21 kg/ha. The procedure:
as §2, §3, §4, §5

For test [13], the system named is Cocklebur. In words: Pre-emergence herbicide test. The settings on record: Xanthium strumarium, read-out: % plant inhibition (Cobu); for inhibition at 11210 g/ha: 11.21 kg/ha. How it is done:
as §2, §3, §4, §5

For test [14], the system named is Velvetleaf. Briefly: Pre-emergence herbicide test. The settings on record: Abutilon theophrasti, read-out: % plant inhibition (Vele); for inhibition at 11210 g/ha: 11.21 kg/ha. The procedure: as §2, §3, §4, §5
The test system of test [15] is Indian Mustard. In words: Pre-emergence herbicide test. The conditions noted are these: Brassica juncea, read-out: % plant inhibition (Inmu); for inhibition at 11210 g/ha: 11.21 kg/ha. How it is done:
as §2, §3, §4, §5

In test [16] the test system is Downy Brome. Briefly: Pre-emergence herbicide test. The conditions noted are these: Bromus tectorum, read-out: % plant inhibition (Dobr); for inhibition at 11210 g/ha: 11.21 kg/ha. How it is done:
as §2, §3, §4, §5

Test [17] relates to Annual bluegrass. In words: Pre-emergence herbicide test. The conditions noted are these: read-out: % plant inhibition (Anbg); for inhibition at 11210 g/ha: 11.21 kg/ha. The procedure:
as §2, §3, §4, §5

For test [18], the system named is Wild buckwheat. Briefly: Pre-emergence herbicide test. The settings on record: Fallopia convolvulus, read-out: % plant inhibition (Wibw); for inhibition at 11210 g/ha: 11.21 kg/ha. The procedure:
as §2, §3, §4, §5

For test [19], the system named is Seedling johnsongrass. Briefly: Pre-emergence herbicide test. The settings on record: Sorghum halepense, read-out: % plant inhibition (Sejg); for inhibition at 11210 g/ha: 11.21 kg/ha. The procedure: as §2, §3, §4, §5
In test [20] the test system is Wild buckwheat. In words: Post-emergence herbicide test. The settings on record: Fallopia convolvulus, 11.21 kg/ha, read-out: % plant inhibition (Wibw).
Excerpt: as §1

The mark [21] stands for this setting: Ipomoea, read-out: % plant inhibition (Mogl).

This note sets out measurements from patent US5530126A, “Process for the preparation of substituted 6-(pyrazol-3yl)-1,4-benzoxazin-3-ones” (Monsanto Company, priority 1994, dated 1996).

Values joined by “and” are separate entries in the source; they are usually repeats but may differ in a detail not shown here. Identical values can stand only once.

As a reminder, the inhibition is the percentage by which the read-out fell short of the control.

Take `Cn1nc(-c2cc(F)c(Cl)cc2Cl)c(Cl)c1C(F)(F)F` [Compound 84]: the inhibition at 11210 g/ha came to 50% in the test with Morningglory [1] (setting [21]); 10% with Yellow nutsedge [2]; 10% in the test with Barnyardgrass [3]; 20% with Cocklebur [4]; 100% in the test on Velvetleaf [5]; 0% with Indian Mustard [6]. Besides, the inhibition at 11210 g/ha with Downy Brome [7] was determined as 0%; in the test with Annual bluegrass [8], 10%; in the test on Seedling johnsongrass [9] it was 40%; with Morningglory [10], 90%; in the test on Yellow nutsedge [11] it was 30%; in the test with Barnyardgrass [12] it was 100%. For the same molecule, the inhibition at 11210 g/ha came to 80% in the test with Cocklebur [13]; 100% in the test on Velvetleaf [14]; 100% in the test with Indian Mustard [15]; 100% in the test on Downy Brome [16]; 100% in the test with Annual bluegrass [17]; 100% in the test on Wild buckwheat [18]. Also, the inhibition at 11210 g/ha with Seedling johnsongrass [19] is 100%.
For `Cn1nc(C(F)(F)F)c(Cl)c1-c1cc(F)c([N+](=O)[O-])cc1F` [Compound 70], the inhibition at 11210 g/ha with Morningglory [1] (setting [21]) was determined as 40%; in the test with Yellow nutsedge [2] it was 0%; with Barnyardgrass [3], 40%; in the test with Cocklebur [4] it was 30%; with Velvetleaf [5] it was 50%; in the test on Indian Mustard [6] it was 20%. Moreover, the inhibition at 11210 g/ha worked out at 10% with Downy Brome [7]; 10% with Annual bluegrass [8]; 10% in the test with Seedling johnsongrass [9]; 80% in the test with Morningglory [10]; 0% with Yellow nutsedge [11]; 40% in the test with Barnyardgrass [12]. Moreover, the inhibition at 11210 g/ha in the test on Cocklebur [13] is 20%; with Velvetleaf [14], 90%; in the test on Indian Mustard [15] it was 80%; in the test on Downy Brome [16], 20%; in the test on Annual bluegrass [17], 40%; in the test on Wild buckwheat [18], 80%. Also, the inhibition at 11210 g/ha with Seedling johnsongrass [19] came out at 80%.
On to `Cn1nc(C(F)(F)F)c(Cl)c1-c1cc(F)c(Cl)cc1Cl` [Compound 80], for which the inhibition at 11210 g/ha with Morningglory [1] (setting [21]) turned out to be 10%; in the test on Yellow nutsedge [2] it was 0%; with Barnyardgrass [3], 0%; in the test on Cocklebur [4] it was 10%; in the test on Velvetleaf [5] it was 60%; in the test with Indian Mustard [6], 0%. Besides, the inhibition at 11210 g/ha came out at 0% in the test on Downy Brome [7]; 0% in the test with Annual bluegrass [8]; 0% with Seedling johnsongrass [9]; 60% in the test with Morningglory [10]; 0% in the test with Yellow nutsedge [11]; 70% in the test on Barnyardgrass [12]. For the same molecule, the inhibition at 11210 g/ha in the test on Cocklebur [13] turned out to be 60%; in the test with Velvetleaf [14] it was 100%; in the test on Indian Mustard [15], 80%; in the test with Downy Brome [16], 70%; in the test on Annual bluegrass [17], 90%; in the test with Wild buckwheat [18], 90%. Besides, the inhibition at 11210 g/ha in the test with Seedling johnsongrass [19] turned out to be 80%.
Regarding `Cn1nc(-c2cc(OCC(=O)OC(C)(C)C)c(Cl)cc2F)c(Cl)c1C(F)(F)F` [Compound 294, (2-Chloro-5-(4-chloro-1-methyl-5-(trifluoromethyl)-1H-pyrazol-3-yl)-4-fluorophenoxy)acetic acid, 1,1-dimethylethyl ester], the “% plant inhibition (Mogl)” value in the test on Morningglory [1] (1.12 kg/ha) amounted to 90%. Moreover, the inhibition at 1120 g/ha with Morningglory [1] (Ipomoea, 1.12 kg/ha, read-out: % plant inhibition (Mogl)) was determined as 80%; in the test on Yellow nutsedge [2] (1.12 kg/ha), 0%; in the test on Morningglory [10] (1.12 kg/ha), 70%; in the test with Yellow nutsedge [11] (1.12 kg/ha), 0%; in the test with Barnyardgrass [12] (1.12 kg/ha) it was 20%; in the test with Cocklebur [13] (1.12 kg/ha), 80%. Besides, the inhibition at 1120 g/ha with Velvetleaf [14] (1.12 kg/ha) stood at 70%; in the test with Indian Mustard [15] (1.12 kg/ha) it was 0%; in the test with Downy Brome [16] (1.12 kg/ha), 20%; in the test with Annual bluegrass [17] (1.12 kg/ha) it was 0%; with Wild buckwheat [18] (1.12 kg/ha), 90%; in the test on Seedling johnsongrass [19] (1.12 kg/ha) it was 20%. Further, the “% plant inhibition (Cobu)” value with Cocklebur [4] (1.12 kg/ha) was determined as 50%. Moreover, the “% plant inhibition (Vele)” value in the test with Velvetleaf [5] (1.12 kg/ha) is 50% and 80%.
For `Cn1nc(-c2cc(NC(=O)C3(Br)CC3)c(Cl)cc2F)c(Cl)c1C(F)(F)F` [Compound 500, cyclopropanecarboxamide,-1-bromo-N-[2-chloro-5-[4-chloro-1-methyl-5-(trifluoromethyl)-1H-pyrazol-3-yl]-4-fluorophenyl]-], the inhibition at 11210 g/ha with Yellow nutsedge [2] stood at 0%; in the test on Annual bluegrass [8], 50%; in the test on Seedling johnsongrass [9] it was 90%; in the test on Morningglory [10] it was 60%; with Yellow nutsedge [11], 0%; with Barnyardgrass [12], 30%. For the same molecule, the inhibition at 11210 g/ha in the test with Cocklebur [13] came to 40%; in the test on Velvetleaf [14], 70%; in the test with Indian Mustard [15] it was 30%; in the test on Downy Brome [16] it was 80%; with Annual bluegrass [17], 10%; in the test with Wild buckwheat [18], 90%. The inhibition at 11210 g/ha in the test on Seedling johnsongrass [19] was 70%.
In the case of `Cn1nc(C(F)(F)F)c(Cl)c1-c1ccc([N+](=O)[O-])cc1` [Compound 65], the inhibition at 11210 g/ha came to 50% in the test with Morningglory [1] (setting [21]); 0% with Yellow nutsedge [2]; 70% in the test on Barnyardgrass [3]; 40% in the test on Cocklebur [4]; 70% in the test with Velvetleaf [5]; 30% with Indian Mustard [6]. Moreover, the inhibition at 11210 g/ha worked out at 10% in the test with Downy Brome [7]; 0% with Annual bluegrass [8]; 70% in the test with Wild buckwheat [20]; 50% with Seedling johnsongrass [9]; 20% in the test on Morningglory [10]; 0% with Yellow nutsedge [11]. Moreover, the inhibition at 11210 g/ha came to 30% in the test with Barnyardgrass [12]; 0% with Cocklebur [13]; 90% in the test on Velvetleaf [14]; 0% with Downy Brome [16]; 70% with Annual bluegrass [17]; 80% in the test with Wild buckwheat [18]. Moreover, in the test on Seedling johnsongrass [19], the inhibition at 11210 g/ha came out at 70%.
